Assay results taken from patent US6310095A, “Inhibitors of protein isoprenyl transferases” (University of Pittsburgh, priority 1998, dated 2001).
Counter-ions that a name gives are not always drawn. Like-named read-outs stand apart in the source and are kept apart here.

Biological target: T1, protein farnesyltransferase (Rattus norvegicus, UniProt Q02293+Q04631)
T1 construct: Rat brain protein farnesyltransferase activity is measured; from tissue; host or cells: rat brain; purified according to Reiss et al., Cell 62:81-88 (1990), steps one through three
Experiment: in vitro inhibition of protein farnesyltransferase (scintillation proximity assay, biotin-K Ras B fragment)
Format: biochemical
Details: for inhibition at 0.01 µM / inhibition at 1 µM / inhibition at 0.1 µM: read-out: % inhibition of farnesyltransferase; for inhibition at 1 µM: at 1 × 10^-6 M
Summary of the method: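 Scintillation proximity read-out of farnesylation, using a biotinylated K Ras B fragment (0.1 mM final) in place of biotin-lamin. Enzyme purified from rat brain; results given as % inhibition.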

inhibition at 1 µM [%] | SMILES | also measured
61 | CSCC[C@H](NC(=O)c1ccc(CNCCS)cc1-c1ccccc1)C(=O)O [Example 626] | 
85 | CSCC[C@H](NC(=O)c1ccc(CNCCSC(C)(C)C)cc1-c1ccccc1)C(=O)O [Example 627] | 
43 | CSCC[C@H](NC(=O)c1ccc(CNCC(O)CO)cc1-c1ccccc1)C(=O)O (stereo partly shown) [Example 632] | 
32 | CSCCC(CO)NCc1ccc(C(=O)N[C@@H](CCSC)C(=O)O)c(-c2ccccc2)c1 (stereo partly shown) [Example 633] | 
72 | CSCC[C@H](NC(=O)c1ccc(CNCCN(C(C)C)C(C)C)cc1-c1ccccc1)C(=O)O [Example 636] | 
34 | CSCC[C@H](NC(=O)c1ccc(CNCCN2CCCC2)cc1-c1ccccc1)C(=O)O [Example 641] | 
48 | CSCC[C@H](NC(=O)c1ccc(CNc2ccccc2F)cc1-c1ccccc1)C(=O)O [Example 642] | 
54 | CSCC[C@H](NC(=O)c1ccc(CNc2ccccc2C(N)=O)cc1-c1ccccc1)C(=O)O [Example 644] | 
37 | CSCC[C@H](NC(=O)c1ccc(CNc2ccccc2Oc2ccccc2)cc1-c1ccccc1)C(=O)O [Example 645] | 
58 | CCOC(=O)c1ccc(NCc2ccc(C(=O)N[C@@H](CCSC)C(=O)O)c(-c3ccccc3)c2)cc1 [Example 646] | 
86 | CSCC[C@H](NC(=O)c1ccc(CN(CCC#N)Cc2ccccc2)cc1-c1ccccc1)C(=O)O [Example 649] | 

The remaining lines, values behind:

SMILES | inhibition at 1 µM [%] | also measured
CSCC[C@H](NC(=O)c1ccc(CN(CCC2CCCCC2)Cc2ccccc2)cc1-c1ccccc1C)C(=O)O [Example 605, N-[4-(N-benzyl-N-(2-cyclohexylethyl)aminomethyl)-2-(2-methylphenyl)benzoyl]methionine Lithium Salt] |  | inhibition at 0.01 µM: 68%
CCSC[C@H](CC1CCCCC1)OCc1ccc(C(=O)N[C@@H](CCSC)C(=O)O)c(-c2ccccc2C)c1 [Example 606] |  | % inhibition of farnesyltransferase (at 1 × 10^-8 M): 93%
CSCC[C@H](NC(=O)c1ccc(CNCCC2CCCCC2)cc1-c1ccccc1C)C(=O)O [Example 607, N-[4-(N-2-cyclohexylethylaminomethyl)-2-(2-methylphenyl)benzoyl]methionine Trifluoroacetate Salt] | 96 | 
CSCC[C@H](NC(=O)c1ccc(CN(C)CCC2CCCCC2)cc1-c1ccccc1C)C(=O)O [Example 608, N-[4-(N-(2-cyclohexylethyl)-N-methylaminomethyl)-2-(2-methylphenyl)benzoyl]methionine Lithium Salt] |  | inhibition at 0.01 µM: 91%
CSCC[C@H](NC(=O)c1ccc(CN(CCC2CCCCC2)C(C)=O)cc1-c1ccccc1C)C(=O)O [Example 609, N-[4-(N-acetyl-N-(2-cyclohexylethyl)aminomethyl)-2-(2-methylphenyl)benzoyl]methionine Lithium Salt] |  | inhibition at 0.1 µM: 95%
CSCC[C@H](NC(=O)c1ccc(CN(CCC2CCCCC2)C(=O)N(C)C)cc1-c1ccccc1C)C(=O)O [Example 610, N-[4-(N-(N,N-dimethylaminocarbonyl)-N-(2-cyclohexylethyl)aminomethyl)-2-(2-methylphenyl)benzoyl]methionine] | 94 | 
CSCC[C@H](NC(=O)c1ccc(CN(CCC2CCCCC2)S(C)(=O)=O)cc1-c1ccccc1C)C(=O)O [Example 611, N-[4-(N-(2-cyclohexylethyl)-N-methanesulfonylaminomethyl)-2-(2-methylphenyl)benzol]methionine Lithium Salt] |  | inhibition at 0.1 µM (at 1 × 10^-7 M): 95%
CSCC[C@H](NC(=O)c1ccc(CN(CCC2CCCCC2)S(=O)(=O)c2ccccc2)cc1-c1ccccc1C)C(=O)O [Example 612, N-[4-(N-benzenenesulfonyl-N-(2-cyclohexylethyl)aminomethyl)-2-(2-methylphenyl)benzoyl]methionine Lithium Salt] |  | inhibition at 0.01 µM (at 1 × 10^-8 M): 96%
CSCC[C@H](NC(=O)c1ccc(CN[C@H](C)CC2CCCCC2)cc1-c1ccccc1C)C(=O)O [Example 613, N-[4-(3-cyclohexylpropan-2-ylaminomethyl)-2-(2-methylphenyl)benzoyl]methionine] | 97 | 
CC[C@H](CC1CCCCC1)NCc1ccc(C(=O)N[C@@H](CCSC)C(=O)O)c(-c2ccccc2C)c1 [Example 614, N-[4-(4-cyclohexylbutan-3-ylaminomethyl)-2-(2-methylphenyl)benzoyl]methionine Lithium Salt] |  | inhibition at 0.01 µM (at 1 × 10^-8 M): 92%
CCCC[C@H](CC1CCCCC1)NCc1ccc(C(=O)N[C@@H](CCSC)C(=O)O)c(-c2ccccc2C)c1 [Example 615, N-[4-(6-cyclohexylhexan-5-ylaminomethyl)-2-(2-methylphenyl)benzoyl]methionine Lithium Salt] |  | inhibition at 0.1 µM (at 1 × 10^-7 M): 94%
CSCC[C@H](NC(=O)c1ccc(CNC(CC2CCCCC2)C2CCCCC2)cc1-c1ccccc1C)C(=O)O (stereo partly shown) [Example 616, N-[4-(1,2-dicyclohexylethylaminomethyl)-2-(2-methylphenyl)benzoyl]methionine Lithium Salt] |  | inhibition at 0.1 µM: 95%
CSCC[C@H](NC(=O)c1ccc(CN[C@H](CO)CC2CCCCC2)cc1-c1ccccc1C)C(=O)O [Example 617, N-[4-(3-cyclohexylpropan-1-ol-2-ylaminomethyl)-2-(2-methylphenyl)benzoyl]methionine] | 99 | 
CSCC[C@H](NC(=O)c1ccc(CN[C@@H](CO)CC2CCCCC2)cc1-c1ccccc1C)C(=O)O [Example 618, N-[4-(3-cyclohexylpropan-1-ol-2-ylaminomethyl)-2-(2-methylphenyl)benzoyl]methionine Trifluoroacetate Salt] |  | inhibition at 0.1 µM (at 1 × 10^-7 M): 89%
C=C[C@H](CC1CCCCC1)NCc1ccc(C(=O)N[C@@H](CCSC)C(=O)O)c(-c2ccccc2C)c1 [Example 619, N-[4-(2-cyclohexylprop-1-en-2-ylaminomethyl)-2-(2-methylphenyl)benzoyl]methionine Lithium Salt] |  | inhibition at 0.01 µM (at 1 × 10^-8 M): 95%
CCS(=O)(=O)C[C@H](CC1CCCCC1)NCc1ccc(C(=O)N[C@@H](CCSC)C(=O)O)c(-c2ccccc2C)c1 [Example 620, N-[4-(3-cyclohexyl-1-ethylsulfonylpropan-2-ylaminomethyl)-2-(2-methylphenyl)benzoyl]methionine Lithium Salt] | 98 | 
CCS(=O)(=O)C[C@H](CC1CCCCC1)NCc1ccc(C(=O)N[C@@H](CCS(C)(=O)=O)C(=O)O)c(-c2ccccc2C)c1 [Example 621, N-[4-(3-cyclohexyl-1-ethylsulfonylpropan-2-ylaminomethyl)-2-(2-methylphenyl)benzoyl]-2-amino-4-methanesulfonylbutanoic acid Lithium Salt] |  | inhibition at 0.1 µM (at 1 × 10^-7 M): 98%
CSCC[C@H](NC(=O)c1ccc(CN[C@H](CSC(C)(C)C)CC2CCCCC2)cc1-c1ccccc1C)C(=O)O [Example 622, N-[4-(3-cyclohexyl-1-t-butylthiopropan-2-ylaminomethyl)-2-(2-methylphenyl)benzoyl]methionine Lithium Salt] |  | inhibition at 0.1 µM (at 1 × 10^-7 M): 95%
CSCC[C@H](NC(=O)c1ccc(CN[C@H](CSc2ccccc2)CC2CCCCC2)cc1-c1ccccc1C)C(=O)O [Example 623, N-[4-(3-cyclohexyl-1-phenylthiopropan-2-ylaminomethyl)-2-(2-methylphenyl)benzoyl]methionine Lithium Salt] |  | inhibition at 0.1 µM (at 1 × 10^-7 M): 96%
CSCC[C@H](NC(=O)c1ccc(CNCC(C)(C)CN(C)C)cc1-c1ccccc1)C(=O)O [Example 639] |  | inhibition at 10 µM (at 1 × 10^-5 M): 44%
